Measured values: PMC9130233, “An inhibitor of RORγ for chronic pulmonary obstructive disease treatment” (Scientific Reports, 2022)

Experiments:
FXR = tested on: T1, FXR; assay: TR-FRET selectivity binding assay, FXR
T1 construct: purchased Invitrogen
Excerpt: (§1) Based on the homology of the ligand binding domains, 3 different isoforms of ROR (hRORα, hRORβ and hRORγ) are reported. Small variations in the LBD regions possibly lead to differences in competitive binding between the nuclear receptors of the ROR isoforms (Fig. 1b). Similar to the assessment of RORγ binding assay, TR-FRET binding assays were also used to assess the affinity of PCCR-1 for other ROR isoforms. […] This was reconfirmed in cellular functional assays for the selected isoforms and nuclear receptors using Gal4 DBD with luciferase reporter system from Indigo (PA, USA). […] In addition, both cellular agonist and antagonist effects as well as for enzyme activity were evaluated with a known reference compound for each target, using a radiolabeled method (Eurofins Cerep, France, Table 1).
(§2) For selectivity, the ROR isoforms RORα, FXR, LXRα, LXRβ, RXR, RARα were incubated with compound for 60 min at 22 °C followed by detection mix containing respective agonist (All trans retinoic acid for RARα, T0901317 for LXRα, LXRβ, 9-cis Retinoic acid for RXR, GW-4064 for FXR) and coactivator peptide (FD22 for RORα, PGC1α for RXR, RARα, TRAP220 for LXRα, LXRβ, SRC2-2 for FXR) and Tb-anti GST antibody prepared in assay buffer were added into a 384-well white plate. Reading taken after overnight incubation and the data analysis done as per the protocol mentioned in RORγt-LBD and co-activator ligand binding assay.

[1] = tested on: IL-17 release from COPD patient PBMCs; assay: IL-17 release, PBMC from COPD patients; assay type: cell-based; details: Homo sapiens, TCR stimulated, n = 16, read-out: IL-17 IC50, COPD patient's sample: PBMC
Description: Whole blood and BAL samples from COPD patients were obtained from Multispecialty hospital, Mumbai post approval from ethics committee and informed consent of patients. 30–40 mL Broncho alveolar lavage (BALf) was collected per patient and stored in ice. Blood was collected in heparin vaccutainer as per approved protocol. Both the samples were processed within 2 h of collection. BALF was passed through 100-µm and 40-µm cell strainer to remove debris and mucus, the samples were centrifuged and the cells were re-suspended in RPMI 1640 complete medium. PBMCs from blood were isolated using Histopaque-1077 by density gradient centrifugation. Isolated BAL cells and PBMCs were seeded in 96 well coated with 10 µg/ml anti-CD3 and 2 µg/ml anti-CD2. Cells were further treated with different concentration of test compound for 60 min followed by stimulation with 20 µg/ml anti-CD28 and incubated for 48–72 h. The supernatant was used for estimating IL-17 by ELISA.

RXR = assay: TR-FRET selectivity binding assay, RXR
Excerpt: as §1, §2

[2] = tested on: IL-17 release in human neutrophils; assay: IL-17 release, human neutrophils, PMA + ionomycin; assay type: cell-based; details: Neutrophil, n = 4, read-out: potency, IL-17 release inhibition
Description: The human neutrophils were isolated by Ficoll-Hypaque by centrifugation of blood from healthy subjects at 700 g for 30 min, followed by erythrocyte lysis with distilled water for 30 s. Cells were washed in PBS and post 1 h treatment with PCCR-1, cells were stimulated with 50 ng/mL PMA and 2 µg/mL Ionomycin. After 18 h the supernatant was collected for IL-17 estimation by ELISA.

RORα = tested on: T2, RORα; assay: TR-FRET selectivity binding assay, RORα; set-up: species or system human
T2 construct: purchased Invitrogen
Excerpt: as §1, §2

[3] = tested on: IL-17F cytokine from human PBMC; assay: IL-17F inhibition, human PBMC; assay type: cell-based; details: hPBMC, read-out: potency, IL-17F levels
[4] = tested on: total leukocytes, neutrophils and macrophages in BAL fluid of cigarette smoke exposed mice; assay: Acute cigarette smoke induced pulmonary inflammation mice model; assay type: in vivo, mouse
Excerpt: Cigarette smoke exposure for 7 days caused significant increase in the total cell count in BAL fluid, including leukocytes, neutrophils and macrophages as compared to an air exposed control group.
Male C57BL/6 mice aged 8–10 weeks were obtained from the animal facility of Glenmark Pharmaceuticals Ltd. All animal experiments were approved by IAEC (institutional Animal Ethics Committee) as per the guideline set up by The Committee for the Purpose of Control and Supervision of Experiments on Animals (CPCSEA), India (CPCSEA is a statutory Committee of Department of Animal Husbandry and Dairying (DAHD), Ministry of Fisheries, Animal Husbandry and Dairying (MoFAH&D), India and constituted under the Prevention of Cruelty to Animals (PCA) Act, 1960., India). All animal experiments and procedures were performed in accordance with CPCSEA and IAEC guidelines and regulations (Registration number 231/2000/CPCSEA).In addition to that, all animal experimentation complies with the guidelines of Animal Research: Reporting In Vivo Experiments (ARRIVE). Male C57BL/6 mice were exposed to either room air or cigarette smoke (CS) from 10 cigarettes (Kentucky Research Cigarettes 3R4F) for 50 min, twice daily for 7 days in a whole body box exposure system (SIU24, ProMech Lab Holding AB, Sweden). […] All aspirates of BAL were pooled and total number of cells were determined using a hemocytometer. […]

LXRα = tested on: T3, LXRα; assay: TR-FRET selectivity binding assay, LXRα
T3 construct: purchased Invitrogen
Excerpt: as §1, §2

SMILES: CCn1c(C(C)(C)Oc2ccc(F)cc2F)nc2cc(NC(=O)Cc3ccc(S(=O)(=O)CC)cc3)ccc21 [PCCR-1]
- % Inhibition FXR (FXR; 1 µM): 21.45%
- % Inhibition FXR (FXR; 10 µM): 19.81%
- Fold over hRORγ, FXR (FXR; vs RORg IC50 31.87 nM): > 313.7 fold
- IC50 [1]: 336 nM
- % Inhibition RXR (RXR; 1 µM): 0.00%
- % Inhibition RXR (RXR; 10 µM): 8.24%
- Fold over hRORγ, RXR (RXR; vs RORg IC50 31.87 nM): > 313.7 fold
- IC50 [2]: 3660 nM
- % Inhibition RORα (RORα; 1 µM): 20.91%
- % Inhibition RORα (RORα; 10 µM): 19.82%
- Fold over hRORγ, RORα (RORα; vs RORg IC50 31.87 nM): > 313.7 fold
- IC50 [3]: 788 nM
- inhibition of total leukocytes in BAL fluid ([4]; intranasal once a day for 7 days, between 1 µg and 50 µg/animal): dose dependent inhibition
- cigarette smoke mediated increase in neutrophil and macrophage counts in BAL fluid ([4]; intranasal, 10, 30, 50 and 100 µg per mouse): significantly obtunded
- % Inhibition LXRα (LXRα; 1 µM): 11.38%
- % Inhibition LXRα (LXRα; 10 µM): 30.37%
- Fold over hRORγ, LXRα (LXRα; vs RORg IC50 31.87 nM): > 313.7 fold
